Assay results from patent US20040097596A1 (priority 2000, published 2004).
Like-named read-outs stand apart in the source and are kept apart here.

Test system: Phytophthora infestans
Format: in vivo
Settings: for E, Expected % disease control / O, Observed % disease control / O-E: A76 potato; for performance in combination with A76 (indicative of synergy): in combination with A76 potato, observed vs expected disease control
[1] = 3 ppm, Jan. 25, 2001, FB 2001/3001
[2] = 3 ppm, Jan. 26, 2001, FB 2001/3001
[3] = 3 ppm, Jan. 27, 2001, FB 2001/3001
[4] = 3 ppm, Jan. 28, 2001, FB 2001/3001
[5] = 3 ppm, Jan. 29, 2001, FB 2001/3001
[6] = 3 ppm, Oct. 13, 2000, FB 2000/3024
[7] = 3 ppm, Oct. 16, 2000, FB 2000/3024
[8] = 3 ppm, Oct. 18, 2000, FB 2000/3024
[9] = 3 ppm, Oct. 20, 2000, FB 2000/3024
[10] = 10 ppm, Jan. 25, 2001, FB 2001/3001
[11] = 10 ppm, Jan. 26, 2001, FB 2001/3001
[12] = 10 ppm, Jan. 27, 2001, FB 2001/3001
[13] = 10 ppm, Jan. 28, 2001, FB 2001/3001
[14] = 10 ppm, Jan. 29, 2001, FB 2001/3001
[15] = 10 ppm, Oct. 13, 2000, FB 2000/3024
[16] = 10 ppm, Oct. 16, 2000, FB 2000/3024
[17] = 10 ppm, Oct. 18, 2000, FB 2000/3024
[18] = 10 ppm, Oct. 20, 2000, FB 2000/3024
[19] = 30 ppm, Oct. 13, 2000, FB 2000/3024
[20] = 30 ppm, Oct. 16, 2000, FB 2000/3024
[21] = 30 ppm, Oct. 18, 2000, FB 2000/3024
[22] = 30 ppm, Oct. 20, 2000, FB 2000/3024

N#Cc1c(Cl)c(Cl)c(Cl)c(C#N)c1Cl [Chlorothalonil, chlorothalonil]
E, Expected % disease control [1]: 98.3%
O, Observed % disease control [1]: 91.7%
O-E [1]: −1.6
E, Expected % disease control [2]: 96.2%
O, Observed % disease control [2]: 94.9%
O-E [2]: −1.3
E, Expected % disease control [3]: 94.5%
O, Observed % disease control [3]: 92.7%
O-E [3]: −1.7
E, Expected % disease control [4]: 83.2%
O, Observed % disease control [4]: 86.9%
O-E [4]: 3.6
E, Expected % disease control [5]: 67.2%
O, Observed % disease control [5]: 77.9%
O-E [5]: 10.7
E, Expected % disease control [6]: 73.73%
O, Observed % disease control [6]: 83.1%
O-E [6]: 9.37
E, Expected % disease control [7]: 78.12%
O, Observed % disease control [7]: 86.09%
O-E [7]: 7.97
E, Expected % disease control [8]: 56.09%
O, Observed % disease control [8]: 76.41%
O-E [8]: 20.32
E, Expected % disease control [9]: 39.95%
O, Observed % disease control [9]: 75.7%
O-E [9]: 35.75
E, Expected % disease control [10]: 97.0%
O, Observed % disease control [10]: 97.2%
O-E [10]: 0.2
E, Expected % disease control [11]: 98.2%
O, Observed % disease control [11]: 97.4%
O-E [11]: −0.8
E, Expected % disease control [12]: 97.8%
O, Observed % disease control [12]: 97.9%
O-E [12]: 0.1
E, Expected % disease control [13]: 93.8%
O, Observed % disease control [13]: 99.0%
O-E [13]: 5.2
E, Expected % disease control [14]: 90.1%
O, Observed % disease control [14]: 97.0%
O-E [14]: 6.9
E, Expected % disease control [15]: 92.49%
O, Observed % disease control [15]: 88.73%
O-E [15]: −3.76
E, Expected % disease control [16]: 94.65%
O, Observed % disease control [16]: 95.36%
O-E [16]: 0.71
E, Expected % disease control [17]: 91.33%
O, Observed % disease control [17]: 87.77%
O-E [17]: −3.56
E, Expected % disease control [18]: 84.98%
O, Observed % disease control [18]: 79.74%
O-E [18]: −5.24
performance in combination with A76 (indicative of synergy): better than expected

COCC(=O)N(c1c(C)cccc1C)C(C)C(=O)OC (centres unmarked) [Metalaxyl, metalaxyl]
E, Expected % disease control [1]: 88.8%
O, Observed % disease control [1]: 91.7%
O-E [1]: 2.8
E, Expected % disease control [2]: 92.6%
O, Observed % disease control [2]: 94.9%
O-E [2]: 2.3
E, Expected % disease control [3]: 87.2%
O, Observed % disease control [3]: 93.8%
O-E [3]: 6.5
E, Expected % disease control [4]: 57.9%
O, Observed % disease control [4]: 91.9%
O-E [4]: 34.1
E, Expected % disease control [5]: 38.1%
O, Observed % disease control [5]: 89.9%
O-E [5]: 51.8
E, Expected % disease control [6]: 79.35%
O, Observed % disease control [6]: 94.37%
O-E [6]: 15.02
E, Expected % disease control [7]: 71.31%
O, Observed % disease control [7]: 97.68%
O-E [7]: 26.37
E, Expected % disease control [8]: 58.26%
O, Observed % disease control [8]: 97.95%
O-E [8]: 39.69
E, Expected % disease control [9]: 42.01%
O, Observed % disease control [9]: 95.95%
O-E [9]: 53.94
E, Expected % disease control [10]: 98.3%
O, Observed % disease control [10]: 97.2%
O-E [10]: 3.9
E, Expected % disease control [11]: 96.2%
O, Observed % disease control [11]: 98.7%
O-E [11]: 2.5
E, Expected % disease control [12]: 94.2%
O, Observed % disease control [12]: 99.0%
O-E [12]: 4.8
E, Expected % disease control [13]: 80.4%
O, Observed % disease control [13]: 98.0%
O-E [13]: 17.6
E, Expected % disease control [14]: 55.4%
O, Observed % disease control [14]: 97.0%
O-E [14]: 41.6
E, Expected % disease control [15]: 88.74%
O, Observed % disease control [15]: 94.37%
O-E [15]: 5.63
E, Expected % disease control [16]: 87.84%
O, Observed % disease control [16]: 96.6%
O-E [16]: 8.76
E, Expected % disease control [17]: 75.07%
O, Observed % disease control [17]: 97.95%
O-E [17]: 22.88
E, Expected % disease control [18]: 48.83%
O, Observed % disease control [18]: 96.96%
O-E [18]: 48.13
E, Expected % disease control [19]: 96.25%
O, Observed % disease control [19]: 100%
O-E [19]: 3.75
E, Expected % disease control [20]: 97.08%
O, Observed % disease control [20]: 100%
O-E [20]: 2.92
E, Expected % disease control [21]: 94.58%
O, Observed % disease control [21]: 97.95%
O-E [21]: 3.37
E, Expected % disease control [22]: 89.77%
O, Observed % disease control [22]: 97.97%
O-E [22]: 8.2
performance in combination with A76 (indicative of synergy): better than expected
